Our source for the activity change, negative = cytotoxicity and AC50 values is PubChem BioAssay AID1053139 (Broad Institute, 2014).

The source made the active and inactive calls.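 The calls were made as follows: active = AC50 for cell killing below 10 µM, with the signal falling as expected; inactive = the rest, including compounds acting in the opposite direction.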

System in one assay: not listed separately
Kind of assay: HepG2 cell cytotoxicity, dose response, cytotoxicity control, ATP luminescence, dry powder, set 16 (AID 1053139). The note with it: HepG2 viability, ATP luminescence (CellTiter-Glo), 72 h; at 26 µM (top of the series). On the technique in general: ATP-based viability assays read luminescence as a measure of living cells.
Take `CCCNC(=O)Nc1ccc2c(c1)OC[C@H](C)N(Cc1ccc(-c3ccccn3)cc1)C[C@H](C)[C@@H](OC)CN(C)C2=O`: the activity change, negative = cytotoxicity was -4.61% (inactive). Same read-out and setting: next, `CCCC(=O)Nc1ccc2c(c1)OC[C@H](C)N(Cc1ccc(-c3ccccn3)cc1)C[C@H](C)[C@@H](OC)CN(C)C2=O`: 10.3% (inactive).

In the case of `CO[C@H]1CN(C)C(=O)c2ccc(NC(=O)NC(C)C)cc2OC[C@H](C)N(Cc2ccccc2)C[C@@H]1C`, the activity change, negative = cytotoxicity is 9.75% (inactive). On the same count and under the same terms, next, `CCCNC(=O)Nc1ccc2c(c1)OC[C@H](C)N(Cc1ccccc1)C[C@H](C)[C@@H](OC)CN(C)C2=O`: 11.9% (inactive); `CO[C@H]1CN(C)C(=O)c2ccc(NC(=O)NC(C)C)cc2OC[C@H](C)N(Cc2ccc(-c3ccccn3)cc2)C[C@@H]1C`: -5.04% (inactive).

As to `CCCC(=O)Nc1ccc2c(c1)OC[C@H](C)N(Cc1ccccc1)C[C@H](C)[C@@H](OC)CN(C)C2=O`, the activity change, negative = cytotoxicity was 6.6% (inactive).

The same assay, now with this note: HepG2 viability, ATP luminescence (CellTiter-Glo), 72 h; at 50 µM (top of the series).
Regarding `CO[C@H]1CN(C)C(=O)c2cc(NC(=O)NC(C)C)ccc2OC[C@H](C)N(C(=O)c2ccc(-c3ccccn3)cc2)C[C@@H]1C`, the activity change, negative = cytotoxicity was -10.3% (inactive).

For the compound `CO[C@H]1CN(C)C(=O)c2cc(NC(=O)NC(C)C)ccc2OC[C@H](C)N(Cc2ccc(-c3ccccn3)cc2)C[C@@H]1C`, the activity change, negative = cytotoxicity is -5.64% (inactive). Still for that read-out and setting: in the case of `CO[C@H]1CN(C)C(=O)c2cc(Nc3c(NC(C)C)c(=O)c3=O)ccc2OC[C@H](C)N(Cc2ccc(-c3ccccn3)cc2)C[C@@H]1C` it was -15.4% (inactive).

With `CO[C@H]1CN(C)C(=O)c2cc(NC(=O)NC(C)C)ccc2OC[C@H](C)N(Cc2ccc(-c3cccnc3)cc2)C[C@@H]1C`, the activity change, negative = cytotoxicity is 40.3% (inactive).

`CO[C@H]1CN(C)C(=O)c2cc(NC(=O)NC(C)C)ccc2OC[C@H](C)N(Cc2cccc(F)c2)C[C@@H]1C`: the activity change, negative = cytotoxicity was -1.88% (inactive). On the same count and under the same terms, in the case of `CO[C@H]1CN(C)C(=O)c2cc(NC(=O)NC(C)C)ccc2OC[C@H](C)N(Cc2ccccc2F)C[C@@H]1C` it was 12.7% (inactive). The same measure, in the same setting: in the case of `CO[C@H]1CN(C)C(=O)c2cc(NC(=O)NC(C)C)ccc2OC[C@H](C)N(Cc2ccncc2)C[C@@H]1C` it was -4.57% (inactive). Take `CO[C@H]1CN(C)C(=O)c2cc(NC(=O)OC(C)C)ccc2OC[C@H](C)N(Cc2ccc(-c3ccccn3)cc2)C[C@@H]1C`: the activity change, negative = cytotoxicity is 12.6% (inactive). For `CO[C@H]1CN(C)C(=O)c2cc(NC(=O)NC(C)C)ccc2OC[C@H](C)N(C(=O)c2ccccc2)C[C@@H]1C`, the activity change, negative = cytotoxicity was -5.8% (inactive). `CO[C@H]1CN(C)C(=O)c2cc(Nc3ncccn3)ccc2OC[C@H](C)N(Cc2ccc(-c3ccccn3)cc2)C[C@@H]1C`: the activity change, negative = cytotoxicity was 15.4% (inactive). Still for that read-out and setting: in the case of `CO[C@H]1CN(C)C(=O)c2cc(NC(=O)NC(C)C)ccc2OC[C@H](C)N(Cc2cccnc2)C[C@@H]1C` it was 6.28% (inactive). On the same count and under the same terms, in the case of `CO[C@H]1CN(C)C(=O)c2cc(N)ccc2OC[C@H](C)N(Cc2ccc(-c3ccccn3)cc2)C[C@@H]1C` it was 19.6% (inactive); in that of `CO[C@H]1CN(C)C(=O)c2cc(NC(=O)NC(C)C)ccc2OC[C@H](C)N(C(=O)Nc2ccc(-c3ccccn3)cc2)C[C@@H]1C`, -15% (inactive); in that of `CO[C@H]1CN(C)C(=O)c2cc(Nc3c(NC4CCCC4)c(=O)c3=O)ccc2OC[C@H](C)N(Cc2ccc(-c3ccccn3)cc2)C[C@@H]1C`, 6.09% (inactive). The same measure, in the same setting: next, `CO[C@H]1CN(C)C(=O)c2cc(NC(=O)NC(C)C)ccc2OC[C@H](C)NC[C@@H]1C`: -2.2% (inactive); `CCC(CC)Nc1c(Nc2ccc3c(c2)C(=O)N(C)C[C@H](OC)[C@@H](C)CN(Cc2ccc(-c4ccccn4)cc2)[C@@H](C)CO3)c(=O)c1=O`: -1.61% (inactive); `CO[C@H]1CN(C)C(=O)c2cc(Nc3c(NC4CCCCC4)c(=O)c3=O)ccc2OC[C@H](C)N(Cc2ccc(-c3ccccn3)cc2)C[C@@H]1C`: -22.3% (inactive).

Consider `CO[C@H]1CN(C)C(=O)c2cc(NC(=O)NC(C)C)ccc2OC[C@H](C)N(Cc2ccc(-c3ccncc3)cc2)C[C@@H]1C`, for which the activity change, negative = cytotoxicity is -12.8% (inactive). The same measure, in the same setting: in the case of `CO[C@H]1CN(C)C(=O)c2cc(NC(=O)NC(C)C)ccc2OC[C@H](C)N(Cc2ccccn2)C[C@@H]1C` it was 1.78% (inactive); in that of `CO[C@H]1CN(C)C(=O)c2cc(NC(=O)NC(C)C)ccc2OC[C@H](C)N(Cc2ccc(F)cc2)C[C@@H]1C`, 0.295% (inactive).

The test system of another assay is HepG2 viability, ATP luminescence (CellTiter-Glo), 72 h. Described as above.
Details: not given
Take `CO[C@H]1CN(C)C(=O)c2cc(Nc3c(NC4CC4)c(=O)c3=O)ccc2OC[C@H](C)N(Cc2ccc(-c3ccccn3)cc2)C[C@@H]1C`: the AC50 (usually the concentration at which the activity in the assay is half-maximal) was 38.4 µM. Still for that read-out and setting: next, `CO[C@H]1CN(C)C(=O)c2cc(NC(=O)NC(C)C)ccc2OC[C@H](C)N(Cc2cncnc2)C[C@@H]1C`: > 100 µM (inactive); `CO[C@H]1CN(C)C(=O)c2cc(NC(=O)C(C)C)ccc2OC[C@H](C)N(Cc2ccc(-c3ccccn3)cc2)C[C@@H]1C`: > 24 µM (inactive). On the same count and under the same terms, in the case of `CO[C@H]1CN(C)C(=O)c2cc(NC(=O)NC(C)C)ccc2OC[C@H](C)N(Cc2ccc(-c3cncnc3)cc2)C[C@@H]1C` it was > 100 µM (inactive).
